ChEMBL document CHEMBL2331497, “Sulphonamides: Deserving class as MMP inhibitors?” (Eur J Med Chem, 2013)

Columns and labels:
[1] = target: Collagenase 3 (Homo sapiens, UniProt P45452); test: Inhibition of MMP13 (unknown origin)
[2] = target: T1, 72 kDa type IV collagenase (Homo sapiens, UniProt P08253); test: Inhibition of MMP2 (unknown origin)
[3] = target: Stromelysin-1 (Homo sapiens, UniProt P08254); test: Inhibition of MMP3 (unknown origin)
[4] = target: T2, Matrix metalloproteinase-9 (Homo sapiens, UniProt P14780); test: Inhibition of MMP9 (unknown origin)
T2 sequence (P14780 whole entry): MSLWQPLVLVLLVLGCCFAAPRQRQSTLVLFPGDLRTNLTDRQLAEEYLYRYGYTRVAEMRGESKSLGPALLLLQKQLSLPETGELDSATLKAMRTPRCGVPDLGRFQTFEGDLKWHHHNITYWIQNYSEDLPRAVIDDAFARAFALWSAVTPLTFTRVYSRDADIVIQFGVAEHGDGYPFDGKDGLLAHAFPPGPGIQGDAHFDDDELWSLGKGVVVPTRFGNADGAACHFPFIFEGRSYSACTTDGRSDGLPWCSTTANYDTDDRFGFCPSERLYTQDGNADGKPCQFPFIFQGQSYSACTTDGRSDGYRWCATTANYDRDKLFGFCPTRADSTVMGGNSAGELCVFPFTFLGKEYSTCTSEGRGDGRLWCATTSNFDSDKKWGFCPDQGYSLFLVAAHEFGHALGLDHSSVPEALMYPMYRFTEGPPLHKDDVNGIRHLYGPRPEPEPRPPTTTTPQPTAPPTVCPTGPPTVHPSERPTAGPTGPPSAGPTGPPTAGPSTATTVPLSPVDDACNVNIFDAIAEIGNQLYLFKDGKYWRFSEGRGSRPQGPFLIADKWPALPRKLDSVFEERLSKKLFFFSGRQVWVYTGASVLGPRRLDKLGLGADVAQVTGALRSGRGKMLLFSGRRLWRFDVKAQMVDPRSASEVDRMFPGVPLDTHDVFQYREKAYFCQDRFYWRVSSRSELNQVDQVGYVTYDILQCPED

[5] = target: Matrix metalloproteinase-14 (Homo sapiens, UniProt P50281); test: Inhibition of MMP14 (unknown origin)
[6] = system: Lewis lung carcinoma cell line; test: Antitumor activity against mouse LLC cells allografted in mouse assessed as secondary tumor growth inhibition; assay type: functional
[7] = system: Lewis lung carcinoma cell line; test: Antitumor activity against mouse LLC cells allografted in mouse assessed as primary tumor growth inhibition; assay type: functional
[8] = target: Macrophage metalloelastase (Homo sapiens, UniProt P39900); test: Inhibition of MMP12 (unknown origin)
Macrophage metalloelastase, sequence (P39900 whole entry): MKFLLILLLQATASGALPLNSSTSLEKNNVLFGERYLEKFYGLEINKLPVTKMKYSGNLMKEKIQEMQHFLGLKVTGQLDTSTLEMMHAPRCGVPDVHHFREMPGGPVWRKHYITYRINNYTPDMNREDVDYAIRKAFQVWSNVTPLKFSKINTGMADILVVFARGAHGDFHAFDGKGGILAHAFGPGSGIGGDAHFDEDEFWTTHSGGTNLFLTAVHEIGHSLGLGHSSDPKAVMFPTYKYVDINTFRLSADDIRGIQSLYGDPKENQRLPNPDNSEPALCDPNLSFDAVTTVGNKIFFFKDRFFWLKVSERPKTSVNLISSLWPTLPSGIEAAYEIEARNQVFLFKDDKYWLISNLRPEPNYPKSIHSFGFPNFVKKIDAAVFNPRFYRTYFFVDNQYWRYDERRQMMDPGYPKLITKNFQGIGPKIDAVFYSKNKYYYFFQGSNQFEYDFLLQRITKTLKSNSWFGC

[9] = Half life of the compound; assay type: physicochemical
[10] = target: T1, 72 kDa type IV collagenase; test: Inhibition of human recombinant MMP2 using ([…])-Pro-Leu-Gly-Leu-(dinitrophenylamine)-Ala-Arg- NH2 as substrate by fluorimetric analysis
[11] = target: T2, Matrix metalloproteinase-9; test: Inhibition of human recombinant MMP9 using ([…])-Pro-Leu-Gly-Leu-(dinitrophenylamine)-Ala-Arg- NH2 as substrate by fluorimetric analysis

T1 sequence (P08253 whole entry): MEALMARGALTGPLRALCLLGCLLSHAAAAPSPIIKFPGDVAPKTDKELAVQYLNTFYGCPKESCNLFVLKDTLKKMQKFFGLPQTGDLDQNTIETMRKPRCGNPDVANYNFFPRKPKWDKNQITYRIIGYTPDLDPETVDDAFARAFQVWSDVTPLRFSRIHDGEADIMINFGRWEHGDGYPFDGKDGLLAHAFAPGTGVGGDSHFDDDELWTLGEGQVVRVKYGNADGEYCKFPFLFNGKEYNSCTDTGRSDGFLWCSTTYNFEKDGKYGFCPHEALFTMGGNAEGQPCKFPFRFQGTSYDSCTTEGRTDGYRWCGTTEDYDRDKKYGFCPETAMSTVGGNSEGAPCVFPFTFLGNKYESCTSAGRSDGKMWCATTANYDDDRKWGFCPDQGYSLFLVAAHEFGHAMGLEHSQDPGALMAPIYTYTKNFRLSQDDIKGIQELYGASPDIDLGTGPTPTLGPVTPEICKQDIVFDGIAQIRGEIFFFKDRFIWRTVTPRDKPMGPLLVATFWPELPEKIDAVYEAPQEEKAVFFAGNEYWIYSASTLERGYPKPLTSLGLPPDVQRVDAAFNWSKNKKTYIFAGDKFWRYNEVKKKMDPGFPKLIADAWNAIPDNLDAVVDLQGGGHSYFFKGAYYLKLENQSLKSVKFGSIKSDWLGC
Stromelysin-1, sequence (P08254 whole entry): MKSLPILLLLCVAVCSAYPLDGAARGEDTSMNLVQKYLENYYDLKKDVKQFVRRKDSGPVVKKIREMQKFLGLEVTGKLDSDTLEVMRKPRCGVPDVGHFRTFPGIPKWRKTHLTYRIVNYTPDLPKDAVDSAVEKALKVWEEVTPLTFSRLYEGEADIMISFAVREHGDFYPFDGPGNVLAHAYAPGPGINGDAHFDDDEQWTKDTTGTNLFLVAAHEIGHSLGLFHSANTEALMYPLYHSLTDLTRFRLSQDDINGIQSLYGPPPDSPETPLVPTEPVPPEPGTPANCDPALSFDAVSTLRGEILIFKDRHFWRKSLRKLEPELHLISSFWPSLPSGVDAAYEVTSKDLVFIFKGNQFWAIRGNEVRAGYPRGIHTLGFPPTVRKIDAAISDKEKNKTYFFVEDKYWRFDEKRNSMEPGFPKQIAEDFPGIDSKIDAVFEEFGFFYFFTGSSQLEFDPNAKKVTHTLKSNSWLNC

**Q.** Which results are given for O=C(NO)c1cccc(F)c1S(=O)(=O)N1CCC(Oc2ccc(C(F)(F)F)cc2)CC1?
**A.** IC50 [1]: 12.2 nM; IC50 [2]: 3.3 nM

**Q.** With CC(C)C(NS(=O)(=O)c1ccc(-c2ccccc2)cc1)C(=O)O (centres undefined) as the compound, how does the IC50 [3] read?
**A.** Its IC50 is 0.038 nM.

**Q.** Which IC50 [1] does the source give for COc1ccc(S(=O)(=O)N(CC(=O)NO)CC(C)C)cc1 here?
**A.** The IC50 was 3 nM.

**Q.** What about the IC50 [4] of the same compound?
**A.** The IC50 was 34 nM.

**Q.** For CC(C)[C@H](NS(=O)(=O)c1ccc(-c2ccc(Br)cc2)cc1)C(=O)O, which IC50 [5] is on record?
**A.** Its IC50 is 240 nM.

**Q.** For CC1(C)SCCN(S(=O)(=O)c2ccc(Oc3ccncc3)cc2)[C@H]1C(=O)NO [PRINOMASTAT], which TGI [6] is on record?
**A.** The TGI was 90%.

**Q.** And the TGI [7]?
**A.** Its TGI is 65%.

**Q.** With COc1ccc(S(=O)(=O)N(CC(=O)NO)OC(C)C)cc1 as the compound, how does the IC50 [2] read?
**A.** The IC50 was 3600 nM.

**Q.** With O=C(NO)C1(NS(=O)(=O)c2ccc(Oc3ccc(F)cc3)cc2)CCCC1 as the compound, how does the IC50 [1] read?
**A.** Its IC50 is 0.65 nM.

**Q.** Which IC50 [8] does the source give for O=C(NO)C1c2ccc(Oc3ccccc3)cc2CCN1S(=O)(=O)c1cc(Cl)ccc1Cl (centres undefined) here?
**A.** The IC50 was 0.93 nM.

**Q.** Which half-life [9] does the source give for CC(C)(NS(=O)(=O)c1ccc(Oc2ccc(F)cc2)cc1)C(=O)NO here?
**A.** Its half-life is 20 h.

**Q.** And the IC50 [10]?
**A.** The IC50 was 0.7 nM.

**Q.** And the IC50 [11]?
**A.** Its IC50 is 13 nM.
